Experimental data reported in patent publication US6147100A, “Pyrrolidine derivatives having phospholipase A2 inhibitory activity” (Shionogi & Co., Ltd., priority 1997, dated 2000).

Experiments:
[1] = tested on: production of prostaglandin E2 by human fibroblasts; experiment: Inhibition of Production of Prostaglandin E2 in Human Fibroblasts (IL-1 stimulation); type: cell-based; conditions: Fibroblast; human fibroblasts under stimulation with IL-1
Protocol: Test Example 2 Inhibition of Production of Prostaglandin E2 in Human Fibroblasts.
In order to examine the availability of the composition for inhibiting cytosolic phospholipase A2 (cPLA2) on the cells, the compounds of the present invention were tested for the effect on the production of prostaglandin E2 by human fibroblasts under the stimulation with IL-1 according to the method of J. M. Dayer et al (CACHECTIN/TUMOR NECROSIS FACTOR STIMULATES COLLAGENASE AND PROSTAGLANDIN E2 PRODUCTION BY HUMAN SYNOVIAL CELLS AND DERMAL FIBROBLASTS; J. M. Dayer, B, Beutler and A, Cerami, J. EXP. Med., 1985, 162, 2163-2168.).

cPLA2 = target: T1, cPLA2 (Homo sapiens, UniProt P47712); experiment: cPLA2 Inhibitory Activity; type: biochemical; conditions: 1-palmitoyl-2-[14C]-arachidonoyl-sn-glycero-3-phosphocholine 2.5 μM, sn-1,2-dioleoylglycerol 1.25 μM; pH 7.5, 15 min at 37° C.
T1 sequence (P47712 1-749): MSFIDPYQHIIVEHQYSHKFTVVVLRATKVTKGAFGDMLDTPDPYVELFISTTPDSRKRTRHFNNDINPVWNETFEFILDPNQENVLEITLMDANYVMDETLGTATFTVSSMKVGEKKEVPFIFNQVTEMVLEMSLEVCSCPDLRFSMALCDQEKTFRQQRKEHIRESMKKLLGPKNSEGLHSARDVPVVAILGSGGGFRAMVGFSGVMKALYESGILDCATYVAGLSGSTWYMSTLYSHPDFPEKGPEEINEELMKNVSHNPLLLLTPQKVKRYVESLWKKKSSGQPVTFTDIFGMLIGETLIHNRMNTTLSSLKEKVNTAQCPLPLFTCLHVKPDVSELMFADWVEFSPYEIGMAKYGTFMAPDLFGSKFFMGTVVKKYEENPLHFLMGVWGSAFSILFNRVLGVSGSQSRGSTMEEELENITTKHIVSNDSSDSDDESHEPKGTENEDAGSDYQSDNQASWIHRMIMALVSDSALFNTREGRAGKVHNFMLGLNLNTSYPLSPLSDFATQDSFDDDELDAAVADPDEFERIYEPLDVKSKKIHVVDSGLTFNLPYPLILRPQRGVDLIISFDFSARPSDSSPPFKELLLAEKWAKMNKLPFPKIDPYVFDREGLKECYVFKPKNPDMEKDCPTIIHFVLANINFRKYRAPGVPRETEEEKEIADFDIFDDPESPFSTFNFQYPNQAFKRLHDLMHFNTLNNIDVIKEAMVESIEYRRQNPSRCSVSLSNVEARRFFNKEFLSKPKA
Protocol: Test Example 1 cPLA2 Inhibitory Activity The compounds of the present invention were tested for the cPLA2 inhibitory activity according to the method disclosed in […]. Roberts, […], and J. E. Putnam, J. Biol. Chem., 1991, 266, 5268-5272 as outlined below. […] The reaction mixture includes 50 mM HEPES buffer (pH 7.5), 1 mM calcium chloride, 150 mM sodium chloride, 0.1 mg/ml bovine serum albumin, and 1.7 mM dithiothreitol. To the reaction mixture was added the compound of the present invention and the substrate solution. The reaction was allowed to start by adding an enzyme and continued for 15 min at 37° C. The fatty acids released by the reaction were extracted by the method described in V. P. Dole, and H. Meinertz, J. Biol. Chem., 1960, 235, 2595-2599 and its radiation activity was measured on a liquid scintillation counter. Control was obtained by conducting the experiment in the same manner except that a compound of the present invention was not added.

SMILES	IC50 [1]	IC50 (cPLA2)
CC(C)N(Cc1ccccc1-c1ccccc1)[C@@H]1C[C@@H](CNC(=O)c2ccc(/C=C3\SC(=O)NC3=O)cc2)N(C(=O)c2ccccc2C(=O)c2ccc(F)cc2)C1 [Compound M-9]	3600 nM	39 nM
O=C1NC(=O)/C(=C/c2ccc(C(=O)NC[C@@H]3C[C@@H](SCc4ccccc4-c4ccccc4)CN3C(=O)c3ccccc3C(=O)c3ccc(F)cc3)s2)S1 [Compound I-7]	690 nM	39 nM
O=C1NC(=O)/C(=C/c2ccc(C(=O)NC[C@@H]3C[C@@H](OCc4ccc(F)cc4F)CN3C(=O)c3ccccc3C(=O)c3ccccc3)cc2)S1 [Compound A-3]	900 nM	1400 nM
O=C1NC(=O)/C(=C/c2ccc(C(=O)NC[C@@H]3C[C@@H](N(Cc4ccccc4)Cc4ccccc4)CN3C(=O)c3ccccc3C(=O)c3ccc(F)cc3)cc2)S1 [Compound M-3]	3100 nM	60 nM
COc1cccc(-c2ccccc2O[C@@H]2C[C@@H](CNC(=O)c3ccc(/C=C4\SC(=O)NC4=O)cc3)N(C(=O)c3ccccc3C(=O)c3ccc(F)cc3)C2)c1 [Compound A-98]	440 nM	59 nM
O=C1NC(=O)/C(=C/c2ccc(C(=O)NC[C@@H]3C[C@@H](OCc4ccc5ccccc5c4-c4ccccc4)CN3C(=O)c3ccccc3C(=O)c3ccc(F)cc3)cc2)S1 [Compound A-39]	330 nM	25 nM
O=C1NC(=O)/C(=C/c2ccc(C(=O)NC[C@@H]3C[C@@H](OC(c4ccccc4)c4ccccc4)CN3C(=O)c3ccccc3C(=O)c3ccc(F)cc3)cc2)S1 [Compound A-29]	2200 nM	86 nM
O=C1NC(=S)S/C1=C\c1ccc(C(=O)NC[C@@H]2C[C@@H](SCc3ccccc3-c3ccccc3)CN2C(=O)c2ccccc2C(=O)c2ccc(F)cc2)cc1 [Compound I-6]	260 nM	71 nM
O=C1NC(=S)S/C1=C\c1ccc(CC[C@@H]2C[C@@H](OCc3ccccc3-c3ccccc3)CN2C(=O)c2ccccc2C(=O)c2ccc(F)cc2)cc1 [Compound E-1]	2200 nM	1100 nM
CC(C)CCN(Cc1ccccc1-c1ccccc1)[C@@H]1C[C@@H](CNC(=O)c2ccc(/C=C3\SC(=O)NC3=O)cc2)N(C(=O)c2ccccc2C(=O)c2ccc(F)cc2)C1 [Compound M-11]	970 nM	36 nM
Cc1ccccc1CO[C@@H]1C[C@@H](CNC(=O)c2ccc(/C=C3\SC(=O)NC3=O)cc2)N(C(=O)c2ccccc2C(=O)c2ccc(F)cc2)C1 [Compound A-5]	260 nM	580 nM
O=C1NC(=S)S/C1=C\c1ccc(NC(=O)[C@@H]2C[C@@H](SCc3ccccc3-c3ccccc3)CN2C(=O)c2ccccc2C(=O)c2ccc(F)cc2)s1 [Compound J-4]	5200 nM	810 nM
CN(Cc1ccccc1-c1ccccc1)[C@@H]1C[C@@H](C(=O)Nc2ccc(/C=C3\SC(=O)NC3=O)cc2)N(C(=O)c2ccccc2C(=O)c2ccc(F)cc2)C1 [Compound N-2]	1800 nM	130 nM
O=C1NC(=S)S/C1=C\c1ccc(C(=O)NC[C@@H]2C[C@@H](OCc3ccccc3-c3ccccc3)CN2C(=O)c2ccccc2C(=O)c2ccc(F)cc2)s1 [Compound A-59]	940 nM	47 nM
O=C1NC(=O)/C(=C/c2ccc(C(=O)NC[C@@H]3C[C@@H](Oc4ccc5ccccc5c4)CN3C(=O)c3ccccc3C(=O)c3ccc(F)cc3)cc2)S1 [Compound A-71]	310 nM	190 nM
CN(C(c1ccccc1)c1ccccc1)[C@@H]1C[C@@H](CNC(=O)c2ccc(/C=C3\SC(=O)NC3=O)cc2)N(C(=O)c2ccccc2C(=O)c2ccc(F)cc2)C1 [Compound M-12]	230 nM	94 nM
O=C1NC(=O)/C(=C/c2ccc(C(=O)NC[C@@H]3C[C@@H](Oc4ccccc4-c4cccc5ccccc45)CN3C(=O)c3ccccc3C(=O)c3ccc(F)cc3)cc2)S1 [Compound A-94]	1400 nM	24 nM

SMILES	IC50 [1]	IC50 (cPLA2)
O=C1NC(=O)/C(=C/c2ccc(NC(=O)[C@@H]3C[C@@H](OCc4ccccc4-c4ccccc4)CN3C(=O)c3ccccc3C(=O)c3ccc(Cl)cc3)cc2)S1 [Compound B-3]	3900 nM	420 nM
O=C1NC(=S)S/C1=C\c1ccc(/C=C\[C@@H]2C[C@@H](OCc3ccccc3-c3ccccc3)CN2C(=O)c2ccccc2C(=O)c2ccc(F)cc2)s1 [Compound E-5]	3500 nM	750 nM
O=C1NC(=O)/C(=C/c2ccc(C(=O)NC[C@@H]3C[C@@H](Oc4ccccc4-c4cccc5c4OCO5)CN3C(=O)c3ccccc3C(=O)c3ccc(F)cc3)cc2)S1 [Compound A-102]	330 nM	52 nM
CN(C[C@@H]1C[C@@H](OCc2ccccc2-c2ccccc2)CN1C(=O)c1ccccc1C(=O)c1ccc(F)cc1)C(=O)c1ccc(/C=C2\SC(=O)NC2=O)cc1 [Compound G-1]	980 nM	780 nM
O=C1NC(=O)/C(=C/c2ccc(C(=O)NC[C@@H]3C[C@@H](OCc4ccccc4I)CN3C(=O)c3ccccc3C(=O)c3ccc(F)cc3)cc2)S1 [Compound A-34]	480 nM	71 nM
O=C1NC(=O)/C(=C/c2ccc(C(=O)NC[C@@H]3C[C@H](SCc4ccccc4)CN3C(=O)c3ccccc3C(=O)c3ccccc3)cc2)S1 [Compound I-2]	660 nM	1000 nM
Cc1ccc(C(=O)c2ccccc2C(=O)N2C[C@H](OCc3ccccc3-c3ccccc3)C[C@H]2CNC(=O)c2ccc(/C=C3\SC(=S)NC3=O)cc2)cc1 [Compound A-27]	1200 nM	430 nM
O=C1NC(=O)/C(=C/c2ccc(C(=O)NC[C@@H]3C[C@@H](OCc4ccccc4Cc4ccccc4)CN3C(=O)c3ccccc3C(=O)c3ccc(F)cc3)cc2)S1 [Compound A-32]	570 nM	67 nM
O=C1NC(=O)/C(=C/c2ccc(C(=O)NC[C@@H]3C[C@@H](Oc4cccc5ccccc45)CN3C(=O)c3ccccc3C(=O)c3ccc(F)cc3)cc2)S1 [Compound A-73]	100 nM	110 nM
O=C1NC(=O)/C(=C/c2ccc(NC(=O)[C@@H]3C[C@@H](OCc4ccccc4-c4ccccc4)CN3C(=O)c3ccccc3C(=O)c3ccc(F)cc3)cc2)S1 [Compound B-1]	12000 nM	210 nM
O=C1NC(=O)/C(=C/c2ccc(C(=O)NC[C@@H]3C[C@@H](OCc4ccccc4-c4cccc([N+](=O)[O-])c4)CN3C(=O)c3ccccc3C(=O)c3ccc(F)cc3)cc2)S1 [Compound A-45]	380 nM	74 nM
O=C1NC(=S)S/C1=C\c1ccc(C=C[C@@H]2C[C@@H](OCc3ccccc3-c3ccccc3)CN2C(=O)c2ccccc2C(=O)c2ccc(F)cc2)cc1 [Compound E-3]	6000 nM	730 nM
O=C1NC(=S)S/C1=C\c1ccc(NC(=O)[C@@H]2C[C@@H](OCc3ccccc3-c3ccccc3)CN2C(=O)c2ccccc2C(=O)c2ccc(F)cc2)cc1 [Compound B-2]	4000 nM	84 nM
COc1cccc(-c2ccccc2OC(C)C)c1O[C@@H]1C[C@@H](CNC(=O)c2ccc(/C=C3\SC(=O)NC3=O)cc2)N(C(=O)c2ccccc2C(=O)c2ccc(F)cc2)C1 [Compound A-122]	1400 nM	35 nM
O=C1NC(=O)/C(=C/c2ccc(C(=O)NC[C@@H]3C[C@@H](OCc4ccccc4)CN3C(=O)c3ccccc3C(=O)c3ccccc3)cc2)S1 [Compound A-2]	730 nM	1200 nM
O=C1NC(=S)S/C1=C\c1ccc(NC(=O)[C@@H]2C[C@@H](SCc3ccccc3-c3ccccc3)CN2C(=O)c2ccccc2C(=O)c2ccc(F)cc2)c(O)c1 [Compound J-7]	6200 nM	500 nM
Cc1ccc(C(=O)c2ccccc2C(=O)N2C[C@H](OCc3ccccc3-c3ccccc3)C[C@H]2C(=O)Nc2ccc(/C=C3\SC(=S)NC3=O)cc2)cc1 [Compound B-6]	7100 nM	140 nM
